Assay results reported in ChEMBL document CHEMBL4428024, “Targeting the Bacterial Division Protein FtsZ” (J Med Chem, 2016).
Values after ≈ are worked out from the molar mass of the structure shown.

Experiments:
[1] = target: T1, Cell division protein FtsZ (Escherichia coli K-12) (UniProt P0A9A6); test: Inhibition of Escherichia coli FtsZ assessed as reduction in polymerization
T1 sequence (whole entry): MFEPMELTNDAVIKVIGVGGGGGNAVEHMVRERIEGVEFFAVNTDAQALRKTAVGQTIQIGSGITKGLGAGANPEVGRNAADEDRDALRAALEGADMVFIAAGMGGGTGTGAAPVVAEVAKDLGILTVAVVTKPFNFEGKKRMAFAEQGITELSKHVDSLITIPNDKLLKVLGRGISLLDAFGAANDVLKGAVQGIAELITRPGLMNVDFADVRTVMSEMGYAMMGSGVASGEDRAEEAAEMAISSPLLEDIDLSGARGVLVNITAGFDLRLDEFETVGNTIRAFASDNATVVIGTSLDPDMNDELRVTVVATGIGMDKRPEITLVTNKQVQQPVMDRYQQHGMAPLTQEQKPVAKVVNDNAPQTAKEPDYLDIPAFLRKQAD

[2] = target: T1, Cell division protein FtsZ (Escherichia coli K-12); test: Inhibition of Escherichia coli FtsZ assessed as reduction in GTPase activity by malachite green assay
Bacillus subtilis = test: Antimicrobial activity against Bacillus subtilis; format: functional
Staphylococcus aureus [3] = test: Antimicrobial activity against Staphylococcus aureus; format: functional
Escherichia coli = test: Antimicrobial activity against Escherichia coli; format: functional
[4] = target: T2, Cell division protein FtsZ (Escherichia coli K-12, UniProt P0A9A6); test: Displacement of bis-ANS from Escherichia coli FtsZ
T2 sequence (P0A9A6 whole entry): T1 sequence (whole entry)

Staphylococcus aureus [5] = test: Antimicrobial activity against methicillin resistant Staphylococcus aureus; format: functional
[6] = target: T3, Cell division protein FtsZ (Mycobacterium tuberculosis) (UniProt P9WN95); test: Inhibition of Mycobacterium tuberculosis FtsZ assessed as reduction in GTPase activity by malachite green assay
T3 sequence (whole entry): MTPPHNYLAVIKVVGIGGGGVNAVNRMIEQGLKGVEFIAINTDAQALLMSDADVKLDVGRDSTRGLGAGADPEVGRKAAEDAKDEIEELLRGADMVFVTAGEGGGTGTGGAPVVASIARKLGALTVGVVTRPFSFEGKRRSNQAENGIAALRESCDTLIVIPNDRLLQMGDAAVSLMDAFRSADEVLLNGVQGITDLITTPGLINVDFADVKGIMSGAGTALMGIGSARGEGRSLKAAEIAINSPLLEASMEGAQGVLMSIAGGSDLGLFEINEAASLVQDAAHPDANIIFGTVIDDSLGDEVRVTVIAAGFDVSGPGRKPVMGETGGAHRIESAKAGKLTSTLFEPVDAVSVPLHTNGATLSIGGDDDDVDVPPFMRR

[7] = target: T3, Cell division protein FtsZ (Mycobacterium tuberculosis); test: Inhibition of Mycobacterium tuberculosis FtsZ assessed as reduction in GTPase activity by coupled enzyme assay
[8] = target: T1, Cell division protein FtsZ (Escherichia coli K-12); test: Inhibition of Escherichia coli FtsZ assessed as reduction in GTPase activity by coupled enzyme assay
[9] = target: T4, Cell division protein FtsZ (Staphylococcus aureus) (UniProt P0A031); test: Activation of Staphylococcus aureus FtsZ assessed as increase in GTPase activity by malachite green assay
T4 sequence (whole entry): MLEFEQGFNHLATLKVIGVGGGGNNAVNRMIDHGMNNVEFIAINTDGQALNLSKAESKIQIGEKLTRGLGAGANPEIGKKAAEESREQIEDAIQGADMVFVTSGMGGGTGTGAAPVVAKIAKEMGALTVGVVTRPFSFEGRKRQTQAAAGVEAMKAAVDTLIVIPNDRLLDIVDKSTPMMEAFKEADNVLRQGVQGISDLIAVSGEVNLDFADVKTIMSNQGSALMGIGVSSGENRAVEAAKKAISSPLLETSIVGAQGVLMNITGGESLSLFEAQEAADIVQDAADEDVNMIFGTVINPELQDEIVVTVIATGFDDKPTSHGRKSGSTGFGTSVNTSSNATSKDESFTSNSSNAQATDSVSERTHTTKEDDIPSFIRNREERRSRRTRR

[10] = target: T5, Cell division protein FtsZ (Bacillus subtilis) (UniProt A5Z1V5); test: Inhibition of Bacillus subtilis FtsZ assessed as reduction in GTPase activity by malachite green assay
T5 sequence (whole entry): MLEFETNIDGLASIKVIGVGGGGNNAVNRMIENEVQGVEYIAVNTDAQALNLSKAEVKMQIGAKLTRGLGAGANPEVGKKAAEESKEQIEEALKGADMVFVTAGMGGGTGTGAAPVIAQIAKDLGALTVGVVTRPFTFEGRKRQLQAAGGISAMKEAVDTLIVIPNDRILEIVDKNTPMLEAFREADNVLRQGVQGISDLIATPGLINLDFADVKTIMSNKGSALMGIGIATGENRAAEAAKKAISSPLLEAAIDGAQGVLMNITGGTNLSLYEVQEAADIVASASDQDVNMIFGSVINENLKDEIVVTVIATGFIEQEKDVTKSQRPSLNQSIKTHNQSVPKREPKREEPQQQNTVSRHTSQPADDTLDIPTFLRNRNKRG

[11] = tested on: Mycolicibacterium smegmatis; test: Antimicrobial activity against Mycobacterium smegmatis; format: functional
[12] = target: T4, Cell division protein FtsZ (Staphylococcus aureus); test: Inhibition of Staphylococcus aureus FtsZ assessed as reduction in GTPase activity by coupled enzyme assay
Enterococcus faecalis = test: Antimicrobial activity against Enterococcus faecalis; format: functional
[13] = Inhibition of ZipA-FtsZ protein-protein interaction (unknown origin) assessed as reduction in binding of fluorescein-labeled analogue of FtsZ C-terminal residues (367 to 383 residues) to C-terminal domain of ZipA (185 to 328 residues) by fluorescence polarization assay
[14] = target: T1, Cell division protein FtsZ (Escherichia coli K-12)
Description: Binding affinity to Escherichia coli FtsZ

SMILES: COc1ccc2cc3[n+](cc2c1OC)CCc1cc2c(cc1-3)OCO2.[Cl-] [BERBERINE CHLORIDE]
- IC50 [1]: 10 µM
- INH [2]: 16 µM
- MIC (Bacillus subtilis): 100 µg/mL
- MIC (Staphylococcus aureus [3]): 32 to 128 µg/mL
- INH (Escherichia coli): >400 µM
- Kd [4]: 0.023 µM

SMILES: CCN(CC)CCNc1nc(/C=C/c2ccc(Cl)cc2)nc2cc3ccccc3cc12
- IC50 [1]: 15 µM
- MIC (Bacillus subtilis): 1.08 µg/mL (≈ 2.51 µM)
- MIC (Escherichia coli): >34 µg/mL
- INH (Staphylococcus aureus [5]): 4.31 µg/mL
- INH [6]: 50 µM
- INH [7]: 50 µM
- IC50 [8]: 15 µM

SMILES: Oc1cc(O)c2c(c1)C/C(Cl)=C\Cc1cc(c(Cl)cc1O)Oc1c(O)cc(cc1O)C/C(Cl)=C\Cc1cc(c(Cl)cc1O)O2
- INH [2]: 9.88 µM
- MIC (Staphylococcus aureus [3]): 1.8 µg/mL (≈ 2.65 µM)
- INH (Staphylococcus aureus [5]): 1.5 µg/mL

SMILES: NC(=O)c1c(F)ccc(OCc2nc3cc(Cl)cnc3s2)c1F
- MIC (Staphylococcus aureus [3]): 1 µg/mL (≈ 2.81 µM)
- Activity [9]: 0.1 µM

SMILES: CC(=O)O[C@@]12CO[C@@H]1C[C@H](O)[C@@]1(C)C(=O)[C@H](O)C3=C(C)[C@@H](OC(=O)/C=C/c4ccc5ccccc5c4)C[C@@](O)([C@@H](OC(=O)c4ccccc4)[C@H]21)C3(C)C
- INH (Bacillus subtilis): 38 µM
- INH [10]: 35 µM
- INH [11]: 60 µM

SMILES: CCC(CC)c1cc([C@H]2CN3CC[C@H]2C[C@@H]3CN)nc(-c2ccncc2)n1
- MIC (Staphylococcus aureus [3]): 6.53 µg/mL (≈ 17.9 µM)
- MIC (Escherichia coli): 13.1 µg/mL (≈ 35.8 µM)
- INH [12]: 37.5 µM

SMILES: O=C(O)c1ccc(-c2cccc(-c3c(-c4ccccc4)[nH]c4ccccc34)c2)cc1
- MIC (Bacillus subtilis): 4 µg/mL (≈ 10.3 µM)
- MIC (Staphylococcus aureus [3]): 4 to 8 µg/mL
- MIC (Enterococcus faecalis): 8 to 16 µg/mL
- IC50 [13]: 192 µM

SMILES: O=C/C=C/c1ccccc1 [CINNAMALDEHYDE]
- INH [2]: 5.81 µM
- INH (Bacillus subtilis): 500 mg/L
- INH (Staphylococcus aureus [3]): 250 mg/L
- INH (Escherichia coli): 1000 mg/L
- Ka [14]: 1 µM
